According to patent US12370235B2, “Synthetic, non-natural antimicrobial peptides inspired by Staphylococcus auricularis delta toxin” (University of Saskatchewan, priority 2021, dated 2025):
Ends that are not written are not given here.

Legend:
[1] = test system: S. aureus ATCC 29213; experiment: MIC, broth dilution; assay type: cell-based, Staphylococcus aureus; details: Table 5; STIP3 variants, highest concentration 100 μg/mL
Description: (§1) MIC determination. MICs were measured using peptides with 95% purity. For bacterial studies, cation-adjusted Mueller Hinton (MH) broth was used as the growth medium whereas Yeast Peptone Dextrose (YPD; 10 g/L yeast extract, 20 g/L peptone, 20 g/L dextrose) was used for Candida spp. and other yeast. Microorganisms were diluted to an optical density of […] in MH or YPD broth and a 180 μl volume was mixed with 20 μl of peptide arrayed as a 2-fold dilution series in a flat-bottom 96-well microtitre plate. A control was performed using 20 μl of sterile water. Plates were incubated as standing cultures overnight at 37° C.
(§2) Determination of minimum inhibitory concentrations. The MICs were measured for bioactive peptides identified from the initial screen. For bacterial studies, cation-adjusted Mueller Hinton (MH) broth was used as the growth medium whereas YPD was used for C. albicans. Bacterial cultures were diluted to a OD value of 6×10^−4 in MH broth and a 180 μl volume was mixed with 20 μl of peptide arrayed as 2-fold dilution series in a 96-well plate. For the positive control, 20 μl of sterile water was used. Plates were incubated as standing cultures overnight at 37° C. The lowest peptide concentration that resulted no observed microbial growth after an overnight treatment was defined as the MIC.

[2] = test system: S. aureus ATCC 33592 (MRSA SCCmec type III); experiment: MIC, broth dilution; assay type: cell-based, Staphylococcus aureus; details: Table 5; STIP3 variants, highest concentration 100 μg/mL
Description: as §1, §2

[3] = test system: S. aureus ATCC BAA-1683 (MRSA SCCmec type IV); experiment: MIC, broth dilution; assay type: cell-based, Staphylococcus aureus; details: Table 5; STIP3 variants, highest concentration 100 μg/mL
Description: as §1, §2

[4] = test system: S. aureus ATCC BAA-2094 (MRSA SCCmec type V); experiment: MIC, broth dilution; assay type: cell-based, Staphylococcus aureus; details: Table 5; STIP3 variants, highest concentration 100 μg/mL
Description: as §1, §2

[5] = test system: S. aureus ATCC BAA-2313 (MRSA SCCmec type XI); experiment: MIC, broth dilution; assay type: cell-based, Staphylococcus aureus; details: Table 5; STIP3 variants, highest concentration 100 μg/mL
Description: as §1, §2

[6] = test system: S. aureus ATCC BAA-41 (MRSA SCCmec type II); experiment: MIC, broth dilution; assay type: cell-based, Staphylococcus aureus; details: Table 5; STIP3 variants, highest concentration 100 μg/mL
Description: as §1, §2

[7] = test system: S. aureus ATCC BAA-42 (MRSA SCCmec type VI); experiment: MIC, broth dilution; assay type: cell-based, Staphylococcus aureus; details: Table 5; STIP3 variants, highest concentration 100 μg/mL
Description: as §1, §2

[8] = test system: S. aureus ATCC BAA-44 (MRSA SCCmec type I); experiment: MIC, broth dilution; assay type: cell-based, Staphylococcus aureus; details: Table 5; STIP3 variants, highest concentration 100 μg/mL
Description: as §1, §2

[9] = test system: Mannheimia haemolytica ATCC 33393; experiment: MIC, broth dilution; assay type: cell-based; details: Table 11; highest concentration 25 μg/mL
Description: as §1, §2
The ability of STIP3 variants to inhibit the growth of Mannheimia haemolytica ATCC 33393 was evaluated. This included an alanine scan of STIP3-1 (FIG. 8 & Table 10) as well as 30 rationally-designed STIPs that were evaluated in the preceding Examples against other pathogens (Table 11). Substitutions at a greater number of sites were tolerated in the context of antimicrobial activity. Moreover, the inclusion of basic natural and unnatural amino acids (e.g. lysine, ornithine, and arginine) at positions 3, 4 and 11 (i.e. X1, X2, and X4 of SEQ ID NO: 32) to afford a more uniformly cationic peptide increased activity against M. haemolytica.

[10] = test system: C. albicans MYA-2876; experiment: MIC, YPD broth; assay type: cell-based, Candida albicans; details: Table 8
Description: as §1, §2

[11] = test system: Candida duobushaemulonii AR 391; experiment: MIC, YPD broth, CDC and FDA AR Candida isolate panel; assay type: cell-based; details: Table 9 below the line: only 200 or 100 μg/mL tested; values reported as 100 are ≤100 μg/mL
Description: as §1

[12] = test system: Candida duobushaemulonii AR 392; experiment: as above; assay type: cell-based; details: Table 9 below the line: only 200 or 100 μg/mL tested; values reported as 100 are ≤100 μg/mL
Description: as §1

[13] = test system: Candida duobushaemulonii AR 394; experiment: as above; assay type: cell-based; details: Table 9 below the line: only 200 or 100 μg/mL tested; values reported as 100 are ≤100 μg/mL
Description: as §1

[14] = test system: Candida haemulonii AR 393; experiment: as above; assay type: cell-based; details: Table 9 below the line: only 200 or 100 μg/mL tested; values reported as 100 are ≤100 μg/mL
Description: as §1

[15] = test system: Candida haemulonii AR 395; experiment: as above; assay type: cell-based; details: Table 9 below the line: only 200 or 100 μg/mL tested; values reported as 100 are ≤100 μg/mL
Description: as §1

[16] = test system: Candida krusei AR 397; experiment: as above; assay type: cell-based; details: Table 9 below the line: only 200 or 100 μg/mL tested; values reported as 100 are ≤100 μg/mL
Description: as §1

[17] = test system: Candida lusitaniae AR 398; experiment: as above; assay type: cell-based; details: Table 9 below the line: only 200 or 100 μg/mL tested; values reported as 100 are ≤100 μg/mL
Description: as §1

[18] = test system: Kodamae ohmeri AR 396; experiment: as above; assay type: cell-based; details: Table 9 below the line: only 200 or 100 μg/mL tested; values reported as 100 are ≤100 μg/mL
Description: as §1

[19] = test system: Saccharomyces cerevisiae AR 399; experiment: as above; assay type: cell-based; details: Table 9 below the line: only 200 or 100 μg/mL tested; values reported as 100 are ≤100 μg/mL
Description: as §1

[20] = test system: Saccharomyces cerevisiae AR 400; experiment: as above; assay type: cell-based; details: Table 9 below the line: only 200 or 100 μg/mL tested; values reported as 100 are ≤100 μg/mL
Description: as §1

Sequence	MIC S. aureus ATCC 29213 [1]	MIC S. aureus ATCC 33592 (III) [2]	MIC S. aureus ATCC BAA 1683 (IV) [3]	MIC S. aureus ATCC BAA 2094 (V) [4]	MIC S. aureus ATCC BAA 2313 (XI) [5]	MIC S. aureus ATCC BAA 41 (II) [6]	MIC S. aureus ATCC BAA 42 (VI) [7]	MIC S. aureus ATCC BAA 44 (I) [8]	MIC (μg/mL) M. haemolytica [9]	MIC C. albicans MYA-2876 [10]	MIC (μg/mL) Candida duobushaemulonii AR 391 [11]	MIC (μg/mL) Candida duobushaemulonii AR 392 [12]	MIC (μg/mL) Candida duobushaemulonii AR 394 [13]	MIC (μg/mL) Candida haemulonii AR 393 [14]	MIC (μg/mL) Candida haemulonii AR 395 [15]	MIC (μg/mL) Candida krusei AR 397 [16]	MIC (μg/mL) Candida lusitaniae AR 398 [17]	MIC (μg/mL) Kodamae ohmeri AR 396 [18]	MIC (μg/mL) Saccharomyces cerevisiae AR 399 [19]	MIC (μg/mL) Saccharomyces cerevisiae AR 400 [20]
TVRALVRWILRTVARFA [STIP3-23, TVRALVRWILRTVARFA]	25 µg/mL	25 µg/mL	25 µg/mL	50 µg/mL	25 µg/mL	6.25 µg/mL	50 µg/mL	25 µg/mL	12.5 µg/mL	> (> symbol indicates that no inhibition was observed at the highest concentration of peptide tested: 100 μg/mL)	> (values below the line were determined using two concentrations of peptide 200 or 100 μg/mL)	> (values below the line were determined using two concentrations of peptide 200 or 100 μg/mL)	> (values below the line were determined using two concentrations of peptide 200 or 100 μg/mL)	> (values below the line were determined using two concentrations of peptide 200 or 100 μg/mL)	> (values below the line were determined using two concentrations of peptide 200 or 100 μg/mL)	> (values below the line were determined using two concentrations of peptide 200 or 100 μg/mL)	≤ 100 µg/mL	> (values below the line were determined using two concentrations of peptide 200 or 100 μg/mL)	≤ 100 µg/mL	≤ 100 µg/mL
TVGGLVKWILKAVKKFA [STIP3-13, TVGGLVKWILKAVKKFA]	25 µg/mL	25 µg/mL	25 µg/mL	25 µg/mL	25 µg/mL	12.5 µg/mL	25 µg/mL	25 µg/mL	12.5 µg/mL	50 µg/mL	≤ 100 µg/mL	≤ 100 µg/mL	≤ 100 µg/mL	> (values below the line were determined using two concentrations of peptide 200 or 100 μg/mL)	> (values below the line were determined using two concentrations of peptide 200 or 100 μg/mL)	≤ 100 µg/mL	≤ 100 µg/mL	> (values below the line were determined using two concentrations of peptide 200 or 100 μg/mL)	≤ 100 µg/mL	≤ 100 µg/mL
TVGGLVKWILDTVKKFI [STIP3-5, TVGGLVKWILDTVKKFI]	50 µg/mL	25 µg/mL	25 µg/mL	25 µg/mL	25 µg/mL	25 µg/mL	12.5 µg/mL	50 µg/mL	25 µg/mL	100 µg/mL	> (values below the line were determined using two concentrations of peptide 200 or 100 μg/mL)	> (values below the line were determined using two concentrations of peptide 200 or 100 μg/mL)	> (values below the line were determined using two concentrations of peptide 200 or 100 μg/mL)	> (values below the line were determined using two concentrations of peptide 200 or 100 μg/mL)	> (values below the line were determined using two concentrations of peptide 200 or 100 μg/mL)	≤ 100 µg/mL	≤ 100 µg/mL	> (values below the line were determined using two concentrations of peptide 200 or 100 μg/mL)	≤ 100 µg/mL	≤ 100 µg/mL
